US8138191B2, “Inhibitor compounds and cancer treatment methods” (Critical Outcome Technologies Inc., priority 2007, dated 2012)
Like-named read-outs stand apart in the source and are kept apart here.

Experiments:
SHP 77 cells = test: Proliferation with anti-cancer agents plus COTI-2, SHP 77; format: cell-based, human; conditions: SHP 77
DMS114 cells = test: Proliferation with anti-cancer agents plus COTI-2, DMS114; format: cell-based, human; conditions: DMS114
U87 glioblastoma cells = test: Proliferation of U87 glioblastoma cells (alamarBlue), single agents and combinations with temsirolimus or rapamycin; format: cell-based; conditions: Homo sapiens; U87, single agent, triplicate experiments
Method: In vitro IC50 values were obtained for combinations of compounds of the present invention with temsirolimus or rapamycin in the treatment of U87 glioblastoma cells. Temsirolimus and rapamycin both inhibit proliferation of human U87 glioblastoma cells, as single agents (FIG. 14). […] Both inhibit proliferation of these cells with increasing concentration.
Temsirolimus was provided in liquid form from the London Regional Cancer Program (LRCP) Pharmacy. COTI-219 was prepared as a 50 mM stock in DMSO, then diluted to 10 mM in DMSO followed by serial dilution water for addition to medium overlaying cells. Cells were incubated with temsirolimus in combination with COTI-219 for 4 days (in wells of 96 well plates) followed by analysis of live cell density using the fluorescent vital stain alamarBlue.
All data points are means±SEM (n=6). Error bars are, in every case, smaller than the size of the symbol.
Rapamycin was prepared by crushing and extracting a tablet (supplied from the LRCP Pharmacy) with DMSO, followed by centrifugation to remove particulate matter. COTI-219 was prepared as a 50 mM stock in DMSO, then diluted to 10 mM in DMSO followed by serial dilution water for addition to medium overlaying cells. […]

[1] = test system: NCI/DTP 60 cell line panel; conditions: NOT including DMS114 and SHP-77; cited from earlier work
[2] = test system: PI3K activity in SHP77 cells; test: PI3-K activity (PIP3 detection, Echelon kit), SHP77; format: cell-based, human; conditions: SHP77, 50 μM inhibitor + 250 nM COTI-2
Text: As a negative control, an equivalent volume of DMSO was utilized. […] To measure PI3-K activity, a commercial kit was purchased from Echelon. Following the procedures recommended by the manufacturer, membrane lipids were extracted in several steps and the resulting PIP3 was immobilized to nitrocellulose and measured by its interaction with a PH-domain containing protein and HRP-conjugated antibody supplied with the kit. As an additional control in these experiments, the specific PI3-K inhibitor, LY294002 was used to inhibit PI3-K and thus stop PIP3 production.

[3] = test system: SHP-77 human SCLC cell line tumor xenografts; test: Nude mouse model of human SCLC, SHP-77 xenografts; format: in vivo; conditions: for average number of tumors per injection site / mean tumor volume: IP on alternate days from Day 3, 31 days
Method: The nude mouse model of human SCLC was used to evaluate the in vivo efficacy of compounds of the present invention in comparison with several known chemotherapeutic agents. Nude mice were obtained form the National Cancer Institute and the SHP-77 human SCLC cell line was chosen for metastatic tumor xenografts. The control group consisted of 10 animals, each of which were administered bilateral thigh injections of a prescribed volume of tumor cells. There were 6 treatment groups, each containing 5 animals: COTI-2, COTI-4, COTI-219, Taxotere® (docetaxel), Cisplatin® (cis-diamminedichloroplatinum) and Tarceva® (erlotinib) The therapeutic agent was administered by intraperitoneal (IP) injection on alternate days beginning on Day 3 post tumor cell injection. Each animal in a treatment group was administered bilateral thigh injections with the same prescribed volume of tumor cells as the control animals. Treatment continued for 31 days, following which the animals were euthanized and tissues were collected for subsequent analysis.

DMS153 = test: Resistance testing over 5 generations, DMS153; format: cell-based, human; conditions: DMS153, 5 generations
Method: (§1) In order to evaluate the induction of resistance in vitro, compounds according to the invention were tested in head to head comparisons against conventional therapeutic agents Cisplatin® and Taxotere®. The compound designated COTI-4 (which is the subject of Applicant's co-pending U.S. provisional patent application entitled “Composition and Method for Treatment” filed Dec. 26, 2007) was also tested. The structure for COTI-4 is:
(§2) IC50 values were obtained using methods known to persons skilled in the art with two different human SCLC cell lines (DMS153 and SHP77) obtained from the National Cancer Institute. […] The procedure was repeated for a total of 5 generations. Emerging resistance was identified by increasing IC50 values in successive generations.

SHP77 = test: Resistance testing over 5 generations, SHP77; format: cell-based, human; conditions: SHP77, 5 generations
Method: as §1, §2

U87 = test: IC50 human glioma/astrocytoma cell lines (alamar Blue), U87
SNB-19 = test: IC50 human glioma/astrocytoma cell lines (alamar Blue), SNB-19
H292 = test: CellTiter-Blue growth inhibition, single agents and combinations, H292; format: cell-based; conditions: Homo sapiens, NCI-H292; H292, NSCLC, EGFR - WT, 72 h; read-out: Mean IC50, single agent
Method: (§3) The stock concentration was further diluted to 1 mM and added to a drug plate. […] Following dilution, 2 μl of test agent was transferred to the corresponding wells of a cell-containing 96-well plate with 198 μl of growth media. Tarceva® (erlotinib) was supplied by LC Labs (Woburn, Mass.).
(§4) Viable cell numbers were quantified by the CellTiter-Blue® cell viability assay, which measures the conversion of the indicator dye (resazurin) to resorufin, an indicator of cell viability. Experiments were repeated at least twice with the same concentrations to determine growth inhibitory activity.
(§5) The CI, a numerical value calculated as described in equation A, also provides a quantitative measure of the extent of drug interaction. A CI of less than, equal to, and more than 1 indicates synergy, additivity, and antagonism, respectively. CI=(CAx/ICx,A)+(CB,x/ICx,B) Equation A: Where CA,x and CB,x, are the concentrations of drug A and drug B used in combination to achieve x % drug effect. ICx,A and ICx,B are the concentrations for single agents to achieve the same effect.

H1975 = test: CellTiter-Blue growth inhibition, single agents and combinations, H1975; format: cell-based; conditions: Homo sapiens, NCI-H1975; H1975, NSCLC, EGFR - MUT, 72 h; read-out: Mean IC50, single agent
Method: as §3, §4, §5

COLO-205 = test: Tumor cell proliferation, single agents and combinations, COLO-205; format: cell-based, human; conditions: for IC50: Homo sapiens
Method: (§6) The 3 cell lines were treated as follows:
(§7) Day 1: Cells were plated in 96-well flat bottom plates (VWR, Mississauga, ON, Canada) and allowed to adhere overnight.
(§8) All treated and control cells were, therefore, exposed to a 1% DMSO concentration plus the desired concentration of COTI-2.
as §5

HCT-15 = test: Tumor cell proliferation, single agents and combinations, HCT-15; format: cell-based; conditions: Homo sapiens; HCT-15, Colon, KRAS - MUT; read-out: Mean IC50, single agent
Method: as §6, §7, §8, §5

SW620 = test: Tumor cell proliferation, single agents and combinations, SW620; format: cell-based, human; conditions: for IC50: Homo sapiens
Method: as §6, §7, §8, §5

CYP2B6 [4] = target: T1, CYP2B6 (Homo sapiens, UniProt P20813); conditions: both, 15 min, pH 7.4
T1 sequence (P20813 1-491): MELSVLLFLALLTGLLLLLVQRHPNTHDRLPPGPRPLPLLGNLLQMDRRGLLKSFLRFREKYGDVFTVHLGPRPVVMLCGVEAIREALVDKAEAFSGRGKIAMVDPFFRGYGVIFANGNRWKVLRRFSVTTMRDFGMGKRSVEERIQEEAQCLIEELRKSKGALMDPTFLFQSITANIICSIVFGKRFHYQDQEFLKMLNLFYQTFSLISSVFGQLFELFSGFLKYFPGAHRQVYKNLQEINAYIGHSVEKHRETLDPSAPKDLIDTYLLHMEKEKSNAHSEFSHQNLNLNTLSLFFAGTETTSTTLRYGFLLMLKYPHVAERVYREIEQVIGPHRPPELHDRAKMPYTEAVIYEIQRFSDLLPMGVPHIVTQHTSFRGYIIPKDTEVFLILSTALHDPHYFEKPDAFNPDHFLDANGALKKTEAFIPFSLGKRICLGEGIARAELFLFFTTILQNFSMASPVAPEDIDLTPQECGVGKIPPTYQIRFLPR

CYP2B6 [5] = target: T1, CYP2B6; test: biochemical

Q: Which “effect of combination with COTI-2 on proliferation” value (“effect of combination” for short) (SHP 77 cells) does the source give for `CCC1=C[C@@H]2CN(C1)Cc1c([nH]c3ccccc13)[C@@](C(=O)OC)(c1cc3c(cc1OC)N(C)[C@H]1[C@@](O)(C(=O)OC)[C@H](OC(C)=O)[C@]4(CC)C=CCN5CC[C@]31[C@@H]54)C2` [Vinorelbine, reference compound] here?
A: additive effect

Q: And the “effect of combination” value (DMS114 cells)?
A: additive effect

Q: Which IC50 (U87 glioblastoma cells) does the source give for `CO[C@H]1C[C@@H]2CC[C@@H](C)[C@@](O)(O2)C(=O)C(=O)N2CCCC[C@H]2C(=O)O[C@H]([C@H](C)C[C@@H]2CC[C@@H](O)[C@H](OC)C2)CC(=O)[C@H](C)/C=C(\C)[C@@H](O)[C@@H](OC)C(=O)[C@H](C)C[C@H](C)/C=C/C=C/C=C/1C` [Rapamycin, rapamycin] here?
A: 9.9 µM

Q: With `CO[C@H]1C[C@@H]2CC[C@@H](C)[C@@](O)(O2)C(=O)C(=O)N2CCCC[C@H]2C(=O)O[C@H]([C@H](C)C[C@@H]2CC[C@@H](OC(=O)C(C)(CO)CO)[C@H](OC)C2)CC(=O)[C@H](C)/C=C(\C)[C@@H](O)[C@@H](OC)C(=O)[C@H](C)C[C@H](C)/C=C/C=C/C=C/1C` [Temsirolimus, temsirolimus] as the compound, how does the IC50 (U87 glioblastoma cells) read?
A: 3.6 µM

Q: With `COc1ccc(NC(=S)N=Nc2c(O)[nH]c3c(Cl)cc(Cl)cc23)cc1` [NSC73306] as the compound, how does the “Mean Over NCI/DTP 60 cell line panel (LogGI50)” value [1] read?
A: −4.9

Q: For `C=CCNC(=S)N=Nc1c(O)n(CN2CCOCC2)c2ccc([N+](=O)[O-])cc12` [NSC716768], which “Mean Over NCI/DTP 60 cell line panel (LogGI50)” value [1] is on record?
A: −4.7

Q: With `O=c1cc(N2CCOCC2)oc2c(-c3ccccc3)cccc12` [LY294002, reference compound] as the compound, how does the “PIP3 detected in the presence of the PI3K-inhibitor” value [2] read?
A: approximately 14 pmol

Q: Which results are given for `N.N.[Cl][Pt][Cl]` [Cisplatin, cis-diamminedichloroplatinum, reference compound]?
A: average number of tumors per injection site [3]: 0.48; mean tumor volume [3]: 132+/−26 mm^3; emerging resistance: ratio of IC50 to IC50 of parental generation (DMS153): significant increases in IC50; emerging resistance: ratio of IC50 to IC50 of parental generation (SHP77): significant increases in IC50; IC50 (U87; U87, 4-7 days): 490 nM; IC50 (SNB-19; SNB-19, 4-7 days): 870 nM

Q: Which IC50 (U87; Homo sapiens, U-87 MG) does the source give for `O=NN(CCCl)C(=O)NCCCl` [BCNU, 1,3-Bis(2-chloroethyl)-1-nitrosourea, reference compound] here?
A: 1520 nM

Q: And the IC50 (SNB-19; Homo sapiens, SNB-19)?
A: 2250 nM

Q: Which results are given for `CC(=O)O[C@@]12CO[C@@H]1C[C@H](O)[C@@]1(C)C(=O)[C@H](O)C3=C(C)[C@@H](OC(=O)[C@H](O)[C@@H](NC(=O)OC(C)(C)C)c4ccccc4)C[C@@](O)([C@@H](OC(=O)c4ccccc4)[C@H]21)C3(C)C` [Taxotere®, docetaxel, reference compound]?
A: average number of tumors per injection site [3]: 0.48; mean tumor volume [3]: 183 mm^3; emerging resistance: ratio of IC50 to IC50 of parental generation (DMS153): significant increases in IC50; emerging resistance: ratio of IC50 to IC50 of parental generation (SHP77): significant increases in IC50

Q: For `Oc1[nH]c2ccccc2c1N=NC(=S)N1CCCCCC1` [NSC668496], which “Mean Over NCI/DTP 60 cell line panel (LogGI50)” value [1] is on record?
A: −6.1

Q: For `Nc1ccn([C@@H]2O[C@H](CO)[C@@H](O)C2(F)F)c(=O)n1` [Gemcitabine, reference compound], which “effect of combination” value (SHP 77 cells) is on record?
A: additive effect

Q: What about the “effect of combination” value (DMS114 cells) of the same compound?
A: additive effect

Q: Which “survival of treated animals to study conclusion” value ([3]; 31 days) does the source give for `C#Cc1cccc(Nc2ncnc3cc(OCCOC)c(OCCOC)cc23)c1` [Tarceva®, erlotinib] here?
A: died before study conclusion

Q: And the IC50 (H292)?
A: 20 nM

Q: What about the IC50 (H1975) of the same compound?
A: > 100 µM

Q: What about the “highest concentration that did not significantly affect growth” value (COLO-205; COLO 205) of the same compound?
A: 10 µM

Q: What about the IC50 (COLO-205; 96 h, read-out: concentration to reduce growth by 50% (IC50), COLO-205, 4 day assessment) of the same compound?
A: > 10 µM

Q: What about the IC50 (COLO-205; COLO-205, Colon, KRAS - WT, read-out: Mean IC50, single agent) of the same compound?
A: > 10 µM

Q: And the IC50 (HCT-15)?
A: 5.1 µM

Q: What about the IC50 (SW620; SW-620, 96 h, read-out: concentration to reduce growth by 50% (IC50), SW620, 4 day assessment) of the same compound?
A: > 10 µM

Q: And the IC50 (SW620; SW-620, SW620, Colon, KRAS - MUT, read-out: Mean IC50, single agent)?
A: > 10 µM

Q: What about the “highest concentration that did not significantly affect growth” value (SW620; SW620) of the same compound?
A: 5 µM

Q: For `COC(=O)[C@H](c1ccccc1Cl)N1CCc2sccc2C1` [Clopidogrel], which nH (CYP2B6 [4]) is on record?
A: 2.7

Q: What about the IC50 (CYP2B6 [5]) of the same compound?
A: 640 nM
